The subject of data set [1] is Aspergillus Fumigutus (AF) strains. Briefly: Aspergillus fumigatus keratitis in rats, intravenous administration. Particulars: 10 mg/kg tail vein once daily for 5 days; mean ± SD of 10 rats.
Data set [2] can be described thus: Determination of solubility in deionized water (HPLC, external standard). Particulars: 25 °C, water, thermodynamic from solid.
Data set [3] deals with Aspergillus fumigatus AF293. Briefly: Lung Aspergillus fumigatus infection in immunosuppressed mice, intravenous administration. The conditions noted are these: for responders at 20 mg/kg: Aspergillus fumigatus, AF293, in Mus musculus, iv; for lung fungal load: mouse lung tissue, seven days later, 20 mg/kg tail vein once daily for 5 days, mean ± SD.
Description: ICR male mice were injected intraperitoneally with cyclophosphamide 150 mg/kg and injected subcutaneously with dexamethasone 150 mg/kg for 10 consecutive days. At the same time, the blood was taken to measure the changes of peripheral white blood cells and neutrophils, and mice with neutrophils consistently lower than 100/μl were selected as successfully immunosuppressed mice. Immediately after the last injection, the mice were anesthetized with ethyl ether, and mice were transferred from the initial state of excitement to inhibition. After their bodies were relaxed, the mice were immediately taken. Left hand was used to grasp the mouse to make it stand upright, the middle finger pressed the mouth so that it could breath only with the nose, and the ring finger gently pressed the abdomen to move the diaphragm muscle upward. 30 μl of conidia suspension (Aspergillus fumigatus AF293, 3×10^6 conidia) was sent to the nostrils of the anesthetized mice by a micropipette to allow spontaneous inhalation. After the mouse returned to normal breathing, it was returned to the cage. […] The death of the mice was observed and the survival time was recorded. Seven days later, the mice were sacrificed and their lung tissues were taken to observe the fungal loads of Aspergillus fumigatus in the lungs of the mice.
Data set [4] can be described thus: In vitro metabolic stability in human plasma. In kind it is in vitro ADME. Particulars: human, plasma, 37° C., 10 μM compound, read-out: Human plasma T1/2. Put shortly:
(§1)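 Human or rat plasma, preincubated 5 min at 37 °C, or intestinal S9 at 37 °C, spiked from 1 mM stock; triplicates sampled at 1, 2, 5, 15 and 30 min into cold internal standard. HPLC quantitation; half-life by non-compartmental analysis.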

Data set [5] in a line: In vitro metabolic stability in human intestine S9. The data set is classed as in vitro ADME. Particulars: human, intestinal S9; 37° C., 10 μM compound, 1 mg/mL S9, NADPH regeneration system; read-out: Human intestine S9 T1/2. Summed up: as §1
Data set [6] is described as follows: In vitro metabolic stability in rat plasma. In kind it is in vitro ADME. Particulars: rat, plasma, 37° C., 10 μM compound, read-out: Rat plasma T1/2. Put shortly: as §1
A short description of data set [7]: In vitro metabolic stability in rat intestine S9. The conditions noted are these: rat, intestinal S9, pH 7.4; 37° C., 10 μM compound, 1 mg/mL S9, NADPH regeneration system; read-out: Rat intestine S9 T1/2. The data set is classed as in vitro ADME. Put shortly:
as §1

Data set [8] in a line: Solid stability test (stability chamber, HPLC total impurity). The data set is classed as physicochemical.
In data set [9] the test system is Candida albicans ATCC10231. Briefly: Systemic fungal infection in mice, intravenous administration. The data set is classed as in vivo, ICR mice. The procedure: ICR mice, weighing 18-22 g, male, provided by Hubei Experimental Animal Center.
Prior to the experiment, a small amount of Candida albicans was picked from an SDA (sacharomyces agar, the same below) medium kept at 4° C. with an inoculation loop and inoculated into 1 ml YPD (Yeast Extract Peptone Dextrose Medium) culture medium, cultured at 30° C. with 200 rpm shaking and activated for 16 hours, so that the fungus was in the late stage of exponential growth. Counted with a hemocytometer and the fungal solution concentration was adjusted to 1×10^3-5×10^3 CFU/ml with RPMI1640 medium (Roswell Park Memorial Institute 1640, the same below). Monoclonal Candida albicans on SDA plate was picked up, inoculated into 1 ml YPD (Yeast Extract Peptone Dextrose Medium, the same below) culture medium, cultured at 35° C., 200 rpm for 16 hours until late exponential growth phase. Candida albicans was inoculated into fresh medium for culturing for 6 hours at 1%, centrifuged at 1000×g for 5 minutes, washed with physiological saline three times until the supernatant was colorless, counted with a hemocytometer, and the cell concentration was adjusted to 5×10^6 cells/ml. A tail vein injection of 0.1 ml/10 g caused a systemic fungal infection in mice. […] A total of 7 days of observations were performed. All dead mice were burned with ethanol.

Data set [10] concerns Candida albicans ATCC10231. Briefly: Systemic fungal infection in mice, intragastric administration. Particulars: Candida albicans, ATCC10231, po. In kind it is in vivo, ICR mice.
The mark [11] stands for this setting: 24 h, read-out: survival rate of mice, day 1, 20 mg/kg tail vein once daily for 5 days, day 1.
Setting [12] is: 48 h, read-out: survival rate of mice, day 2, 20 mg/kg tail vein once daily for 5 days, day 2.
Setting [13] is: 72 h, read-out: survival rate of mice, day 3, 20 mg/kg tail vein once daily for 5 days, day 3.
[14] abbreviates: 96 h, read-out: survival rate of mice, day 4, 20 mg/kg tail vein once daily for 5 days, day 4.
The mark [15] stands for this setting: 120 h, read-out: survival rate of mice, day 5, 20 mg/kg tail vein once daily for 5 days, day 5.
[16] abbreviates: 144 h, read-out: survival rate of mice, day 6, 20 mg/kg tail vein once daily for 5 days, day 6.
Setting [17] is: 168 h, read-out: survival rate of mice, day 7, 20 mg/kg tail vein once daily for 5 days, day 7.
[18] abbreviates: 24 h, read-out: survival rate of mice, day 1.
Setting [19] is: 48 h, read-out: survival rate of mice, day 2.
The mark [20] stands for this setting: 72 h, read-out: survival rate of mice, day 3.
Setting [21] is: 96 h, read-out: survival rate of mice, day 4.
Where [22] appears, read: 120 h, read-out: survival rate of mice, day 5.
Setting [23] is: 144 h, read-out: survival rate of mice, day 6.
Setting [24] is: 168 h, read-out: survival rate of mice, day 7.
[25] abbreviates: 24 h, read-out: survival rate of mice, day 1, 20 mg/kg intragastric once daily for 5 days, day 1.
[26] abbreviates: 48 h, read-out: survival rate of mice, day 2, 20 mg/kg intragastric once daily for 5 days, day 2.
[27] abbreviates: 72 h, read-out: survival rate of mice, day 3, 20 mg/kg intragastric once daily for 5 days, day 3.
Setting [28] is: 96 h, read-out: survival rate of mice, day 4, 20 mg/kg intragastric once daily for 5 days, day 4.
Setting [29] is: 120 h, read-out: survival rate of mice, day 5, 20 mg/kg intragastric once daily for 5 days, day 5.
Setting [30] is: 144 h, read-out: survival rate of mice, day 6, 20 mg/kg intragastric once daily for 5 days, day 6.
Where [31] appears, read: 168 h, read-out: survival rate of mice, day 7, 20 mg/kg intragastric once daily for 5 days, day 7.

Each structure is given as a SMILES string. ≈ marks a conversion by molar mass, not a printed value. Read-outs that look alike come from different tables or passages of the source.

As to `CCC([C@H](C)OC(=O)C(O)C(O)COP(=O)(O)O)n1ncn(-c2ccc(N3CCN(c4ccc(OC[C@@H]5CO[C@@](Cn6cncn6)(c6ccc(F)cc6F)C5)cc4)CC3)cc2)c1=O` (some centres unmarked) [ST0001], the “Amount of active fungi in cornea at day 7” value (“Amount of active fungi” for short) in data set [1] was 3.73 ± 0.63 10^3 CFU/ml. In data set [2], this compound registered a solubility at 30 min of 47.7 mg/mL (≈ 53.1 mM). Besides, the responders at 20 mg/kg in data set [3] (setting [11]) worked out at 100%; in [3] (setting [12]), 100%; in data set [3] (setting [13]) it was 90%; in data set [3] (setting [14]), 90%; in [3] (setting [15]) it was 80%; in data set [3] (setting [16]), 70%. The responders at 20 mg/kg in data set [3] (setting [17]) is 70%. Moreover, the lung fungal load in data set [3] is given as 2.28 ± 0.77 10^4 CFU/ml.

For `CC[C@@H]([C@H](C)O)n1ncn(-c2ccc(N3CCN(c4ccc(OC[C@@H]5CO[C@@](Cn6c[n+](C(C)OC(=O)N(C)c7ncccc7COC(=O)CCC(=O)O)cn6)(c6ccc(F)cc6F)C5)cc4)CC3)cc2)c1=O` (some centres unmarked) [ST0005], the “Amount of active fungi” value in data set [1] is listed as 5.90 ± 1.06 10^3 CFU/ml. Also, the solubility at 30 min in data set [2] is over 50 mg/mL. Moreover, the responders at 20 mg/kg was determined as 100% in [3] (setting [11]); 90% in data set [3] (setting [12]); 80% in data set [3] (setting [13]); 80% in data set [3] (setting [14]); 70% in [3] (setting [15]); 60% in data set [3] (setting [16]). Also, the responders at 20 mg/kg in [3] (setting [17]) turned out to be 50%. Further, the lung fungal load in data set [3] was 3.40 ± 1.26 10^4 CFU/ml.

On to `CC[C@@H]([C@H](C)O)n1ncn(-c2ccc(N3CCN(c4ccc(OC[C@@H]5CO[C@@](Cn6c[n+](C(C)OC(=O)N(C)c7ncccc7COC(=O)[C@@H](N)CO)cn6)(c6ccc(F)cc6F)C5)cc4)CC3)cc2)c1=O` (some centres unmarked) [ST0025], for which the half-life at 10 µM in [4] was determined as 0.92 ± 0.03 min; in [5] it was 25 ± 4.76 min; in [6] it was 1.22 ± 0.85 min; in data set [7] it was 22.5 ± 5.96 min. The “Total impurity increment in 30 days” value in data set [8] is 0.55%. For the same compound, the responders at 20 mg/kg in data set [9] (setting [18]) was 100%; in data set [9] (setting [19]), 100%; in data set [9] (setting [20]), 100%; in data set [9] (setting [21]), 100%; in data set [9] (setting [22]), 100%; in data set [9] (setting [23]) it was 90%. Also, the responders at 20 mg/kg in [9] (setting [24]) was found to be 90%; in data set [10] (setting [25]), 100%; in [10] (setting [26]), 100%; in data set [10] (setting [27]), 90%; in data set [10] (setting [28]), 90%; in data set [10] (setting [29]), 80%. The responders at 20 mg/kg in [10] (setting [30]) and in [10] (setting [31]) was 80% in each case. In data set [2], this compound displayed a solubility at 30 min of over 50 mg/mL.

As for `CC[C@@H]([C@H](C)O)n1ncn(-c2ccc(N3CCN(c4ccc(OC[C@@H]5CO[C@@](Cn6c[n+](C(C)OC(=O)N(C)c7ncccc7COC(=O)[C@@H](N)CC(N)=O)cn6)(c6ccc(F)cc6F)C5)cc4)CC3)cc2)c1=O` (some centres unmarked) [ST0023], the half-life at 10 µM is 0.94 ± 0.15 min in [4], 15 ± 3.78 min in [5], 0.55 ± 0.78 min in data set [6] and 16.7 ± 2.96 min in data set [7]. The “Total impurity increment in 30 days” value in data set [8] stood at 0.42%. The responders at 20 mg/kg is 100% in data set [9] (setting [18]); 100% in [9] (setting [19]); 100% in [9] (setting [20]); 100% in data set [9] (setting [21]); 100% in [9] (setting [22]); 90% in data set [9] (setting [23]). Also, the responders at 20 mg/kg in data set [9] (setting [24]) came to 90%; in data set [10] (setting [25]) it was 100%; in data set [10] (setting [26]), 100%; in [10] (setting [27]), 90%; in data set [10] (setting [28]), 90%; in [10] (setting [29]) it was 90%. Further, the responders at 20 mg/kg in data set [10] (setting [30]) and in [10] (setting [31]) was 80% in each case. This compound gave a solubility at 30 min in [2] of over 50 mg/mL.

For `CC[C@@H]([C@H](C)O)n1ncn(-c2ccc(N3CCN(c4ccc(OC[C@@H]5CO[C@@](Cn6c[n+](C(C)OC(=O)N(C)c7ncccc7COC(=O)C[C@H](N)C(=O)O)cn6)(c6ccc(F)cc6F)C5)cc4)CC3)cc2)c1=O` (some centres unmarked) [ST0004], the “Amount of active fungi” value in [1] was 5.58 ± 1.12 10^3 CFU/ml. Besides, the solubility at 30 min in data set [2] is over 50 mg/mL. Also, the responders at 20 mg/kg in data set [3] (setting [11]) was 100%; in data set [3] (setting [12]), 90%; in data set [3] (setting [13]) it was 80%; in data set [3] (setting [14]) it was 80%; in [3] (setting [15]), 70%; in data set [3] (setting [16]), 60%. In addition, in data set [3] (setting [17]), the responders at 20 mg/kg was determined as 50%. In data set [3], the lung fungal load was 3.51 ± 1.38 10^4 CFU/ml.

On to `CC[C@@H]([C@H](C)O)n1ncn(-c2ccc(N3CCN(c4ccc(OC[C@@H]5CO[C@@](Cn6c[n+](C(C)OC(=O)N(C)c7ncccc7COC(=O)[C@@H](N)CCCCN)cn6)(c6ccc(F)cc6F)C5)cc4)CC3)cc2)c1=O` (some centres unmarked) [ST0024], for which the half-life at 10 µM stood at 1.57 ± 0.34 min in [4], 12.2 ± 5.9 min in data set [5], 2.51 ± 0.69 min in data set [6] and 15.6 ± 5.96 min in [7]. Also, the “Total impurity increment in 30 days” value in data set [8] was 0.62%. Further, the responders at 20 mg/kg in data set [10] (setting [25]) was 100%; in data set [10] (setting [26]), 90%; in [10] (setting [27]), 90%; in data set [10] (setting [28]), 80%; in [10] (setting [29]) it was 80%; in data set [10] (setting [30]) it was 70%. In [10] (setting [31]), the responders at 20 mg/kg came out at 70%. In data set [2], this compound returned a solubility at 30 min of over 50 mg/mL.
